Target: PIK3CA (human) (UniProt P42336)
Assay: Inhibition of PIK3CA Kinase Activity

Sequence of PIK3CA (human) (P42336 whole entry, looked up): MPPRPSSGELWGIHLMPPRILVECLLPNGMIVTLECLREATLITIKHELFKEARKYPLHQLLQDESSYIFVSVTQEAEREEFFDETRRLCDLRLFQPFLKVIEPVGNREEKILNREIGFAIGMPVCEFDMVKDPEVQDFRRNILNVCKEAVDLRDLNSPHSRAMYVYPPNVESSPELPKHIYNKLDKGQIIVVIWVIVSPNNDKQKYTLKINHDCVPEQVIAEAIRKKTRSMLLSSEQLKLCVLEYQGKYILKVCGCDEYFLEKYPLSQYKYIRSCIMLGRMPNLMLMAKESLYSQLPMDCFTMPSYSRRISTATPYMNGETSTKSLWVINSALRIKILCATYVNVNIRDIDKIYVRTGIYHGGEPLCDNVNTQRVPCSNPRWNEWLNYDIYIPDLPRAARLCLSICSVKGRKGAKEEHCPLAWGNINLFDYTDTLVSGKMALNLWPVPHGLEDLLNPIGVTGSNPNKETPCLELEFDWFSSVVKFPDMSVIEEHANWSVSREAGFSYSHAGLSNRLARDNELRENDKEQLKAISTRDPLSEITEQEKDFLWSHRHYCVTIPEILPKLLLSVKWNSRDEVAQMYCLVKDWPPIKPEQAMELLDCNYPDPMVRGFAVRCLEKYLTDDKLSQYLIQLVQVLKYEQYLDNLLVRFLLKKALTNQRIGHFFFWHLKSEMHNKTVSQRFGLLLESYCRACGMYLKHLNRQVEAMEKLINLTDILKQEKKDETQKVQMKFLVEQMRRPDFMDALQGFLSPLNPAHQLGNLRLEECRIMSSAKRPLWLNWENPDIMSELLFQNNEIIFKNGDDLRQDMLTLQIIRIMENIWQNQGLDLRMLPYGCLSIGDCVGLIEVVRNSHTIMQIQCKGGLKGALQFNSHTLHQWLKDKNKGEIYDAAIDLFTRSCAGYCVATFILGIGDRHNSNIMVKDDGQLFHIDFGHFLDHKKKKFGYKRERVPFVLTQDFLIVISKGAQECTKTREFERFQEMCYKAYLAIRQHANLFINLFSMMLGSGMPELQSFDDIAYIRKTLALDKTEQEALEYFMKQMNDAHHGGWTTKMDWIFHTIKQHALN

Row | SMILES | IC50 | IC80
1 | COC(=O)Nc1ccc(-c2nc(N3CCOCC3)c3cnn(C4CCN(C(=O)c5ccc(C#N)cc5)CC4)c3n2)cc1 | 999 nM | –
2 | CN(C)C(=O)C=CCN1CCC(n2ncc3c(N4CCOCC4)nc(-c4ccc5[nH]ccc5c4)nc32)CC1 | 480 nM | –
3 | O=C(c1ccc(F)cc1)N1CCC(n2ncc3c(N4CCOCC4)nc(-c4ccc5[nH]ccc5c4)nc32)CC1 | 1750 nM | –
4 | CNC(=O)Nc1ccc(-c2nc(N3CCOCC3)c3cnn(C4=CCS(=O)(=O)CC4)c3n2)cc1 | 74 nM | –
5 | CNC(=O)Nc1ccc(-c2nc(N3CCOCC3)c3cn[nH]c3n2)cc1 | 14 nM | –
6 | NC(=O)Nc1ccc(-c2nc(N3CCOCC3)c3cnn(C4CCN(C(=O)c5ccccc5)CC4)c3n2)cc1 | – | 84 nM
7 | Nc1ccc(-c2nc(N3CCOCC3)c3cn[nH]c3n2)cc1 | 1610 nM | –
8 | CC(C)(C)OC(=O)N1CCC(n2ncc3c(N4CCOCC4)nc(-c4ccc(NC(=O)Nc5cccnc5)cc4)nc32)CC1 | 32 nM | –
9 | c1ccc(-n2ncc3c(N4CCOCC4)nc(-c4csc5ccccc45)nc32)cc1 | 10000 nM | –
10 | c1ccc(CN2CCC(n3ncc4c(N5CCOCC5)nc(-c5ccc(-c6ccccc6)cc5)nc43)CC2)cc1 | 8570 nM | –
11 | c1ccc(-n2ncc3c(N4CCOCC4)nc(-c4cncnc4)nc32)cc1 | 440 nM | –
12 | CN(C)C(=O)c1ccc(-c2nc(N3CCOCC3)c3cnn(C4CCN(Cc5ccccc5)CC4)c3n2)cc1 | 10000 nM | –
13 | Clc1ccccc1CN1CCC(n2ncc3c(N4CCOCC4)nc(-c4ccc5[nH]ccc5c4)nc32)CC1 | 1700 nM | –
14 | CC(=O)Nc1ccc(-c2nc(N3CCOCC3)c3cnn(C4CCCCO4)c3n2)cc1 (centres undefined) | 1650 nM | –
15 | COC(=O)Nc1ccc(-c2nc(N3CCOCC3)c3cnn(C4CCN(Cc5ccc(F)nc5)CC4)c3n2)cc1 | 1200 nM | –
16 | CCOC(=O)Nc1ccc(-c2nc(N3CCOCC3)c3cnn(C4CCN(C(=O)OCC)CC4)c3n2)cc1 | 6720 nM | –
17 | CN(C)c1cccc(-c2nc(N3CCOCC3)c3cnn(C4CCN(Cc5ccccc5)CC4)c3n2)c1 | 9130 nM | –
18 | c1cc2cc(-c3nc(N4CCOCC4)c4cnn([C@@H]5CCCNC5)c4n3)ccc2[nH]1 | 10000 nM | –
19 | c1ccc(CN2CCC(n3ncc4c(N5CCOCC5)nc(-c5cccc(-c6ccccc6)c5)nc43)CC2)cc1 | 10000 nM | –
20 | c1cc2cc(-c3nc(N4CCOCC4)c4cnn([C@H]5CCCNC5)c4n3)ccc2[nH]1 | 10000 nM | –
21 | c1ccc(CN2CCC(n3ncc4c(N5CCOCC5)nc(-c5ccc6ccccc6c5)nc43)CC2)cc1 | 8200 nM | –
22 | NC(=O)Cc1cccc(-c2nc(N3CCOCC3)c3cnn(-c4ccccc4)c3n2)c1 | 357 nM | –
23 | O=C(O)c1cccc(-c2nc(N3CCOCC3)c3cnn(C4CCN(Cc5ccccc5)CC4)c3n2)c1 | 10000 nM | –
24 | c1ccc(CN2CCC(n3ncc4c(N5CCOCC5)nc(-c5cccc6ccccc56)nc43)CC2)cc1 | 10000 nM | –
25 | CNC(=O)Nc1ccc(-c2nc(N3CCOCC3)c3cnn(C4CCN(C(N)=O)CC4)c3n2)cc1 | 66 nM | –
26 | c1ccc(CN2CCC(n3ncc4c(N5CCOCC5)nc(-c5cccc6c5sc5ccccc56)nc43)CC2)cc1 | 8770 nM | –
27 | O=C(c1cccc(C(F)(F)F)c1)N1CCC(n2ncc3c(N4CCOCC4)nc(-c4ccc5[nH]ccc5c4)nc32)CC1 | 1430 nM | –
28 | CNC(=O)Nc1ccc(-c2nc(N3CCOCC3)c3cnn(C4CCN(COC)CC4)c3n2)cc1 | 1560 nM | –
29 | CNC(=O)Nc1ccc(-c2nc(N3CCOCC3)c3cnn(C4=CC[S+]([O-])CC4)c3n2)cc1 (centres undefined) | 80 nM | –

Reference: the Kinase Knowledgebase extract (Sharma et al. 2016)
